# Experimental data from US20110245316A1, “PREVENTION OR DELAY OF ONSET OF ORAL MUCOSITIS” (SCICLONE PHARMACEUTICALS, INC., priority 2010, published 2011).
# Key:
# [1] = system: patients receiving CT/RT for head and neck cancer; experiment: Phase 2 trial: safety and tolerability; assay type: in vivo, human; conditions: 0.02 or 0.1 mg/kg on each radiation day for up to 7 weeks
# Text: OM is a painful, debilitating, and costly toxicity of different chemoradiotherapy (CT/RT) regimens used to treat head and neck cancer. This trial is a phase 2, randomized, double-blind, dose-ranging, placebo-controlled three-arm study in patients receiving CT/RT for the treatment of head and neck cancer, to assess the safety and tolerability of γ-D-glutamyl-L-tryptophan (SCV-07) as well as its efficacy in delaying the onset of severe OM as assessed by the WHO Oral Mucositis Scale.
# 59 eligible patients with recently diagnosed, treatment naïve, pathologically-confirmed, non-metastatic squamous cell carcinoma of the oral cavity, oropharynx, hypopharynx or larynx were enrolled and treated with a concomitant regimen of CT/RT consisting of a continuous course of external beam irradiation (IMRT eligible) with a minimum cumulative dose of 50 Gray (Gy) and cisplatin monotherapy administered using standard weekly or tri-weekly dosing regimens (80-100 mg/m^2 administered on Days 0, 21 and 42) or weekly (30-40 mg/m^2). At least two ‘at risk’ intraoral sites were included in the radiation fields and received a cumulative RT dose of at least 50 Gy. Subjects were equally randomized to receive either placebo or one of two doses of γ-D-glutamyl-L-tryptophan (0.02 or 0.1 mg/kg) on each radiation day for up to 7 weeks.
# [2] = system: human head and neck cancer (HNC) lines; experiment: Xenograft studies: CRT anti-tumor response; assay type: in vivo
smiles,measurement,setting,value
"N[C@H](CCC(=O)N[C@@H](Cc1c[nH]c2ccccc12)C(=O)O)C(=O)O [SCV-07, γ-D-glutamyl-L-tryptophan]",safety and tolerability,[1],safe and well tolerated with no drug-related serious adverse events reported
same,safety and tolerability,[1]; listed as γ-D-glutamyl-L-tryptophan,safe and well tolerated
same,impact on CRT anti-tumor response,[2],did not impact CRT anti-tumor response
